Values after ≈ are worked out from the molar mass of the structure shown.
Tests used:
Cryptococcus neoformans [1] = experiment: Antifungal activity against Cryptococcus neoformans ATCC 208821 at 32 ug/ml measured after 24 hrs by resazurin dye based assay; type: functional; conditions: dose 32 µg/ml
Klebsiella pneumoniae [2] = experiment: Antibacterial activity against Klebsiella pneumoniae ATCC 700603 at 32 ug/ml measured after 18 hrs; type: functional; conditions: dose 32 µg/ml
Pseudomonas aeruginosa [3] = experiment: Antibacterial activity against Pseudomonas aeruginosa ATCC 27853 at 32 ug/ml measured after 18 hrs; type: functional; conditions: dose 32 µg/ml
Candida albicans [4] = experiment: Antifungal activity against Candida albicans ATCC 90028 measured after 24 hrs by resazurin dye based assay; type: functional
Klebsiella pneumoniae [5] = experiment: Antibacterial activity against Klebsiella pneumoniae ATCC 700603 measured after 18 hrs; type: functional
Pseudomonas aeruginosa [6] = experiment: Antibacterial activity against Pseudomonas aeruginosa ATCC 27853 measured after 18 hrs; type: functional
Staphylococcus aureus [7] = experiment: Antibacterial activity against methicillin resistant Staphylococcus aureus ATCC 43300 at 32 ug/ml measured after 18 hrs; type: functional; conditions: dose 32 µg/ml
Cryptococcus neoformans [8] = experiment: Antifungal activity against Cryptococcus neoformans ATCC 208821 measured after 24 hrs by resazurin dye based assay; type: functional
Escherichia coli [9] = experiment: Antibacterial activity against Escherichia coli ATCC 25922 at 32 ug/ml measured after 18 hrs; type: functional; conditions: dose 32 µg/ml
Acinetobacter baumannii [10] = experiment: Antibacterial activity against Acinetobacter baumannii ATCC 19606 measured after 18 hrs; type: functional; conditions: ATCC 19606 = CIP 70.34 = JCM 6841
Candida albicans [11] = experiment: Antifungal activity against Candida albicans ATCC 90028 at 32 ug/ml measured after 24 hrs by resazurin dye based assay; type: functional; conditions: dose 32 µg/ml
[12] = Cytotoxicity against HEK293 cells measured after 20 hrs by resazurin dye based fluorescence assay; type: cell-based; conditions: human
Acinetobacter baumannii [13] = experiment: Antibacterial activity against Acinetobacter baumannii ATCC 19606 at 32 ug/ml measured after 18 hrs; type: functional, ATCC 19606 = CIP 70.34 = JCM 6841; conditions: dose 32 µg/ml
Escherichia coli [14] = experiment: Antibacterial activity against Escherichia coli ATCC 25922 measured after 18 hrs; type: functional
Staphylococcus aureus [15] = experiment: Antibacterial activity against methicillin resistant Staphylococcus aureus ATCC 43300 measured after 18 hrs; type: functional

SMILES | Activity (Cryptococcus neoformans [1]) [%] | Activity (Klebsiella pneumoniae [2]) [%] | Activity (Pseudomonas aeruginosa [3]) [%] | MIC (Candida albicans [4]) [µg/mL] | MIC (Klebsiella pneumoniae [5]) [µg/mL] | MIC (Pseudomonas aeruginosa [6]) [µg/mL] | Activity (Staphylococcus aureus [7]) [%] | MIC (Cryptococcus neoformans [8]) [µg/mL] | Activity (Escherichia coli [9]) [%] | MIC (Acinetobacter baumannii [10]) [µg/mL] | Activity (Candida albicans [11]) [%] | CC50 at 20 h [12] [µg/mL] | Activity (Acinetobacter baumannii [13]) [%] | MIC (Escherichia coli [14]) [µg/mL] | MIC (Staphylococcus aureus [15]) [µg/mL]
Cc1ccc([N+]2=C3CCCCCN3C(O)(c3ccc(-c4ccccc4)cc3)C2)cc1.[Br-] (configuration not stated) | >80 | >80 | >80 | > 32 | > 32 | > 32 | >80 | > 32 | >80 | > 32 | >80 | 2.7 | >80 | > 32 | 16
OC1(c2ccc(-c3ccccc3)cc2)C[N+](c2ccc(OC(F)F)cc2)=C2CCCCCN21.[Br-] (configuration not stated) | >80 | >80 | >80 | > 32 | > 32 | > 32 | >80 | > 32 | >80 | > 32 | >80 | 5.8 | >80 | > 32 | 16
CCOc1ccc(-[n+]2cc(-c3ccc(-c4ccccc4)cc3)n3c2CCCCC3)cc1.[Br-] | >80 | >80 | >80 | 8 | > 32 | 32 | >80 | 16 | >80 | > 32 | >80 | 1.7 | >80 | > 32 | 4
OC1(c2ccc(-c3ccccc3)cc2)C[N+](c2ccc(Cl)cc2)=C2CCCCCN21.[Br-] (configuration not stated) | >80 | >80 | >80 | > 32 | > 32 | 32 | >80 | > 32 | >80 | > 32 | >80 | 3.9 | >80 | > 32 | 16
COc1ccc([N+]2=C3CCCCCN3C(O)(c3ccc(-c4ccccc4)cc3)C2)cc1.[Br-] (configuration not stated) | >80 | >80 | >80 | > 32 | > 32 | > 32 | >80 | 32 | >80 | > 32 | >80 | 2.6 | >80 | > 32 | 16
CCc1ccc(-[n+]2cc(-c3ccc(-c4ccccc4)cc3)n3c2CCCCC3)cc1.[Br-] | >80 | >80 | >80 | 4 | > 32 | 32 | >80 | 8 | >80 | > 32 | >80 | 1.4 | >80 | > 32 | 4
OC1(c2ccc(-c3ccccc3)cc2)C[N+](c2ccc(Br)cc2)=C2CCCCCN21.[Br-] (configuration not stated) | >80 | >80 | >80 | > 32 | > 32 | > 32 | >80 | > 32 | >80 | > 32 | >80 | 6.1 | >80 | > 32 | > 32
OC1(c2ccc(-c3ccccc3)cc2)C[N+](c2ccccc2)=C2CCCCCN21.[Br-] (configuration not stated) | >80 | >80 | >80 | > 32 | > 32 | > 32 | >80 | > 32 | >80 | > 32 | >80 | 2.3 | >80 | > 32 | 32
OC(Cn1cncn1)(Cn1cncn1)c1ccc(F)cc1F [FLUCONAZOLE] | – | – | – | 0.125 (≈ 0.408 µM) | – | – | – | 8 (≈ 26.1 µM) | – | – | – | – | – | – | –
CCc1ccc([N+]2=C3CCCCCN3C(O)(c3ccc(-c4ccccc4)cc3)C2)cc1.[Br-] (configuration not stated) | >80 | >80 | >80 | > 32 | > 32 | 32 | >80 | 32 | >80 | > 32 | >80 | 2.2 | >80 | > 32 | 8

From ChEMBL document CHEMBL4765364, “Synthesis, antibacterial and antifungal activity of new 3-biphenyl-3H-Imidazo[1,2-a]azepin-1-ium bromides” (Eur J Med Chem, 2020)
